In US20250236589A1, “THERAPEUTIC PHENETHYLAMINE COMPOSITIONS AND METHODS OF USE” (Cybin IRL Limited, priority 2022, published 2025):
Values joined by “and” are separate entries in the source; they are usually repeats but may differ in a detail not shown here. Equal entries are not always repeated. Where two headings read alike, the source gives them in different places. Marks after values point to notes of the source that are not given here.

Columns and labels:
[1] = In vitro liver microsome stability (HLM); assay type: in vitro ADME; details: human, human liver microsomes, 0.5 mg/mL microsomes, NADPH, read-out: HLM, t1/2
Method: (§1) In vitro stability was determined in Human (HLM), Rat (RLM), Mouse (MsLM), and dog (DLM) Liver Microsomes. All liver microsomes were purchased from a commercial supplier (e.g. XenoTech). The reaction mixture, minus NADPH, was prepared as described below. The test compound was added into the reaction mixture at a final concentration of 1 μM or co-dosed with their deuterated analog(s) at 1 μM each. The control compound, testosterone, was run simultaneously with the test compound in a separate reaction. The reaction mixture (without cofactor) was equilibrated in a shaking water bath at 37° C. for 5 minutes. The reaction was initiated by the addition of the cofactor, and the mixture was incubated in a shaking water bath at 37° C. Aliquots (150 μL) were withdrawn at 0, 5, 10, 20, 30, 60, and 120 minutes. Test compound and testosterone samples were immediately combined with 150 μL of ice-cold acetonitrile (ACN) containing 0.1% formic acid and internal standard to terminate the reaction. The samples were then mixed and centrifuged to precipitate proteins. All samples were assayed by LC-MS/MS using electrospray ionization. […] Half-lives were calculated using GraphPad software, fitting to a single-phase exponential decay equation.

[2] = molecular target: T1, 5-HT2A receptor (Homo sapiens (Human), UniProt P28223); test: 5-HT2A functional assay, IP1 (IPOne); assay type: cell-based
Method: (§2) After incubation, cells were lysed and fluorescence acceptor and donor were added. FRET was measured after 60 min at room temperature using a microplate reader (Envision, Perkin Elmer). TRUPATH assays followed a similar workflow, except that different reagents were used, and LiCl was not included in the samples; the protocol was based on the report by Olsen, R. H. J. et al., cited above.

[3] = In vitro liver microsome stability (MsLM); assay type: in vitro ADME; details: mouse, mouse liver microsomes, 0.5 mg/mL microsomes, NADPH, read-out: MsLM, t1/2
Method: as §1

[4] = molecular target: T1, 5-HT2A receptor; test: 5-HT2A radioligand competition binding ([3H]LSD or [3H]ketanserin)
[5] = In vitro liver microsome stability (DLM); assay type: in vitro ADME; details: dog, dog liver microsomes, 0.5 mg/mL microsomes, NADPH, read-out: DLM, t1/2
Method: as §1

[6] = molecular target: MAO-A (Homo sapiens (Human), UniProt P21397); test: Recombinant human MAO-A activity (stability); assay type: in vitro ADME; details: hrMAO 0.02 mg/mL, read-out: MAO-A, t1/2
Method: hrMAO-A and MAO control were purchased from XenoTech. The reaction mixture was prepared as described below. The test compound was added into the reaction mixture at a final concentration of 1 μM or co-dosed with their deuterated analog at 1 μM each. The positive control kynuramine (25 μM) was run simultaneously with the test compound in a separate reaction. The reaction mixture (without test compounds or kynuramine) was equilibrated in a shaking water bath at 37° C. for 5 minutes. The reaction was initiated by the addition of the test compound or kynuramine, and the mixture was incubated in a shaking water bath at 37° C. Aliquots (150 μL) of the test compound reaction mixture were withdrawn at 0, 5, 10, 20, 30, 60, and 120 minutes. Aliquots (150 μL) of the positive control reaction mixture were withdrawn at 0 and 30 minutes. Test compound(s) and kynuramine samples were immediately combined with 150 μL of ice-cold 100% acetonitrile containing 0.1% formic acid and internal standard (0.2 μM metoprolol) to terminate the reaction. The samples were then mixed and centrifuged to precipitate proteins. All samples were assayed by LC-MS/MS. The peak area response ratio (PARR) of analyte to internal standard at each time point was compared to the PARR at time 0 to determine the percent remaining at each time point. Half-lives were calculated using GraphPad software, fitting to a single-phase exponential decay equation.

[7] = In vitro liver microsome stability (RLM); assay type: in vitro ADME; details: rat, rat liver microsomes, 0.5 mg/mL microsomes, NADPH, read-out: RLM, t1/2
Method: In vitro stability was determined in Human (HLM), Rat (RLM), Mouse (MsLM), and dog (DLM) Liver Microsomes. All liver microsomes were purchased from a commercial supplier (e.g. XenoTech). The reaction mixture, minus NADPH, was prepared as described below. The test compound was added into the reaction mixture at a final concentration of 1 μM or co-dosed with their deuterated analog(s) at 1 μM each. The control compound, testosterone, was run simultaneously with the test compound in a separate reaction. The reaction mixture (without cofactor) was equilibrated in a shaking water bath at 37° C. for 5 minutes. The reaction was initiated by the addition of the cofactor, and the mixture was incubated in a shaking water bath at 37° C. Aliquots (150 μL) were withdrawn at 0, 5, 10, 20, 30, 60, and 120 minutes. Test compound and testosterone samples were immediately combined with 150 μL of ice-cold acetonitrile (ACN) containing 0.1% formic acid and internal standard to terminate the reaction. The samples were then mixed and centrifuged to precipitate proteins. All samples were assayed by LC-MS/MS using electrospray ionization. The peak area response ratio (PARR) of analyte to internal standard at each time point was compared to the PARR at time 0 to determine the percent remaining at each time point. Half-lives were calculated using GraphPad software, fitting to a single-phase exponential decay equation.

[8] = test system: mice; test: Head-twitch response (HTR) screening in mice; assay type: in vivo, mouse
Method: Protocols were followed according to Canal C E, Morgan D. Head-twitch response in rodents induced by the hallucinogen 2,5-dimethoxy-4-iodoamphetamine: a comprehensive history, a re-evaluation of mechanisms, and its utility as a model. […] Mice were housed in standard laboratory cages with ad libitum access to food and water and were acclimated to the vivarium for at least one week prior to testing in a procedure room. In a typical experiment, mice were injected 3 mg/kg of test article subcutaneously. Mice were placed immediately thereafter in a clear, polycarbonate box (46×20×20 cm), and HTRs were counted at various time points after administration using hand-held tally counters. In a separate experiment, plasma and brain samples were collected at 15 and 160 minutes after administration of test compounds to measure plasma and brain concentrations. Quantification was performed using LC-MS/MS method (LLOQ, 9 nM).

[9] = Plasma and brain concentrations after dosing in mice (screening); assay type: in vivo, mouse; details: for concentration at 160 min: sc, mice, 3 mg/kg s.c.
[10] = molecular target: T2, human 5-HT2B receptor (Homo sapiens (Human), UniProt P41595); test: 5-HT2B functional assay, IP1 (IPOne); assay type: cell-based; details: IP1 assay
Method: (§3) 5-HT2A,2B,2C receptor-mediated Gq activation—canonical signaling pathways—[phosphoinositide hydrolysis leading to the production of inositol phosphate 1 (IP1, IPOne, Cisbio assay) or direct G-protein activation using TRUPATH technology]were measured as previously described (Porter, R. H. P., Benwell, K. R., Lamb, H., Malcolm, C. S., Allen, N. F., Revell, D. F., Adams, D. R. and Sheardown, M. J., 1999, Functional characterization of agonists at recombinant human 5-HT2a, 5HT2b and 5-HT2c receptors in CHO-K1 cells, Brit J Pharmacol 128, 13; Olsen, R. H. J., DiBerto, J. F., English, J. G. et al. TRUPATH, an open-source biosensor platform for interrogating the GPCR transducerome. […] Briefly, for the IPOne assay, for 5-HT2ARs, CHO-K1 or HEK-293 cells were incubated with test articles and 5-HT (positive control) in stimulation buffer containing LiCl. After incubation, cells were lysed and fluorescence acceptor and donor were added. FRET was measured after 60 min at room temperature using a microplate reader (Envision, Perkin Elmer). TRUPATH assays followed a similar workflow, except that different reagents were used, and LiCl was not included in the samples; the protocol was based on the report by Olsen, R. H. J. et al., cited above.

[11] = molecular target: T2, human 5-HT2B receptor; test: 5-HT2B radioligand competition binding ([3H]LSD); details: read-out: 5-HT2B, Ki; radioligand [3H]LSD
[12] = molecular target: T3, 5-HT2C receptor (Homo sapiens (Human), UniProt P28335); test: 5-HT2C functional assay, TRUPATH (BRET); assay type: cell-based
Method: as §3

[13] = molecular target: T3, 5-HT2C receptor; test: 5-HT2C radioligand competition binding ([3H]mesulergine or [3H]LSD)
[14] = molecular target: T1, 5-HT2A receptor; test: 5-HT2A functional assay, TRUPATH (BRET); assay type: cell-based
Method: as §2

[15] = cited from earlier work

T3 sequence (P28335 whole entry, looked up): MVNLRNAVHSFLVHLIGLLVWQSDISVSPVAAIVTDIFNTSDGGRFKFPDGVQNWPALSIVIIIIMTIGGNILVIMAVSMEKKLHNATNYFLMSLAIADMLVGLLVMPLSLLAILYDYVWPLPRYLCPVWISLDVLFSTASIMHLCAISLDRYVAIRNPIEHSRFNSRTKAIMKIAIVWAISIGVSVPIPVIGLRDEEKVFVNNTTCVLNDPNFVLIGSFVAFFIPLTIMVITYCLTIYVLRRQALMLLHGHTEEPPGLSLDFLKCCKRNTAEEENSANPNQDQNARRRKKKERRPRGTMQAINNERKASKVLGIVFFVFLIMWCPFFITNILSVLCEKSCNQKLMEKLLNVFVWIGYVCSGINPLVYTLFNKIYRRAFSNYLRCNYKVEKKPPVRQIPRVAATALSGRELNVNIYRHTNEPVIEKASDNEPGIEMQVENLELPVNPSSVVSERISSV
T2 sequence (P41595 whole entry, looked up): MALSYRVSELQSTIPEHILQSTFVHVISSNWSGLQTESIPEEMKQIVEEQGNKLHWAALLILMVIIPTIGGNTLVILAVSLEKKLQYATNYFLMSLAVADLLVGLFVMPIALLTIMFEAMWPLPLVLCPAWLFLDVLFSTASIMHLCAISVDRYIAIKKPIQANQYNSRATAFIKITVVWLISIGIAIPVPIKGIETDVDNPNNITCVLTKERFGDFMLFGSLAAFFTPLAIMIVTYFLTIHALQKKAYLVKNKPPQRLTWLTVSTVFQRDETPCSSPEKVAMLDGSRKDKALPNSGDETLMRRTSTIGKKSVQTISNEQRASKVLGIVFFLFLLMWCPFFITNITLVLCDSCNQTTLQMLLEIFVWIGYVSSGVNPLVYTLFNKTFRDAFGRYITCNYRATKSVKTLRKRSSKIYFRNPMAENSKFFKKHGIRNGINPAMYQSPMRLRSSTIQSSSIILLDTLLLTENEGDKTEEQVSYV
Chain of MAO-A (P21397 whole entry, looked up): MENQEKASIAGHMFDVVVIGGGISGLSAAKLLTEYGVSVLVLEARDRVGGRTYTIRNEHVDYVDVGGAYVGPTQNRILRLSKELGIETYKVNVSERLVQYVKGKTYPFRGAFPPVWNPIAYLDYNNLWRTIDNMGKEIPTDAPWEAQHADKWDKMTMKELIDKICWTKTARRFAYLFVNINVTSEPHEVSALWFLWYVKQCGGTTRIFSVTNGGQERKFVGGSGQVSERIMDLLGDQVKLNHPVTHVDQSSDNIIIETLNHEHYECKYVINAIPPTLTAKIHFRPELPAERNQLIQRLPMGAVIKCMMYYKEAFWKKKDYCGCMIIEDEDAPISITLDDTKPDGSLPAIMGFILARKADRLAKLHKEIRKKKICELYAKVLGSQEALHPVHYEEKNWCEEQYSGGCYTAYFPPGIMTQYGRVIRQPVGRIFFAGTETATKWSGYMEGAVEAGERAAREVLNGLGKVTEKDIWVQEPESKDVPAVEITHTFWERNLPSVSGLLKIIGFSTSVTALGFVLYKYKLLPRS

[2H]C([2H])([2H])Oc1cc(SC(F)(F)F)c(OC([2H])([2H])[2H])cc1CCN [II-10, 2-(2,5-bis(methoxy-d3)-4-((trifluoromethyl)thio)phenyl)ethan-1-amine]
half-life at 1 μM [1]: > 2 h
5-HT2AR agonist activity (in words) [2]: pronounced agonists
half-life at 1 μM [3]: > 2 h
Ki [4]: 0.035 µM
affinity at 5-HT2A receptors (in words) [4]: superior affinity
Ki ([4]; read-out: 5-HT2A, Ki, [3H]ketanserin, high-affinity active state): 0.00054 µM
half-life at 1 μM [5]: > 2 h
half-life at 1 μM [6]: > 2 h
half-life at 1 μM [7]: 0.988 h
HTR 15-25 min ([8]; measured 0-15 min): 25.6 ##
brain/plasma ratio, 160 min ([9]; 160 min after 3 mg/kg): 24.4
concentration at 160 min ([9]; mouse, brain, read-out: Brain, 160 min): 8.8 µM
Kp at 160 min ([9]; mouse, brain/plasma, subcutaneous, 3 mg/kg, 160 min after 3 mg/kg, read-out: brain/plasma ratio, 160 min): 24 to 32
concentration at 160 min ([9]; mouse, plasma, read-out: Plasma, 160 min): 0.36 µM

COc1cc(SC(F)(F)F)c(OC)cc1CCNCC1CC1 [Compound V-1, N-(cyclopropylmethyl)-2-(2,5-dimethoxy-4-((trifluoromethyl)thio)phenyl)ethan-1-amine]
5-HT2AR agonist activity (in words) [2]: potent 5-HT2AR agonist
EC50 ([2]; 5-HT2A EC50, IP1 assay): 0.035 µM and 0.0357 µM
Emax ([2]; IP1 assay, relative to 5-HT): 31%
Ki ([4]; read-out: 5-HT2A, Ki, radioligand [3H]LSD): 0.01 µM
Ki ([4]; read-out: 5-HT2AR affinity (Ki)): 0.01 µM
Emax ([10]; constrained to 100%): 100%
EC50 ([10]; read-out: 5-HT2B EC50): > 1 µM
Ki [11]: 0.079 µM
EC50 [12]: 0.046 µM
Emax ([12]; relative to 5-HT): 92%
Ki [13]: 0.0749 µM
Ki ([13]; read-out: 5-HT2C, Ki, [3H]LSD, high-affinity active state): 0.00098 µM
HTR (in words) ([8]; 3 mg/kg): elicited an HTR to a much lower extent than DOI
HTR 15-25 min ([8]; calculated using 0-30 min): 3 ####
HTR 160-170 min ([8]; mice, 3 mg/kg s.c.): 4.42
EC50 [14]: 0.028 µM
Emax ([14]; TRUPATH, relative to 5-HT): 75%

COc1cc(OC)c(OC)cc1CCN [2C—O]
activity after oral administration [15]: inactive

[2H]C([2H])(N)Cc1cc(OC)c(C(F)(F)F)cc1OC [IV-3, 2-(2,5-dimethoxy-4-(trifluoromethyl)phenyl)ethan-1,1-d2-1-amine]
Ki ([4]; read-out: 5-HT2A, Ki, radioligand [3H]ketanserin): 0.042 µM
half-life at 1 μM [6]: 1.7 h
half-life at 1 μM [7]: 0.185 h
Ki ([13]; read-out: 5-HT2C, Ki, radioligand [3H]mesulergine): 0.023 µM
